pIC50: −log10 of the molar value.

The values that follow come from patent US7893055B2, “HIV integrase inhibitors” (priority 2006, dated 2011).

For the assay, the target named is T1, HIV-integrase (Human immunodeficiency virus type 1 group M subtype B, UniProt P12497).
T1 construct: Recombinant integrase (0.26 ng) was incubated with the beads
Put plainly: HIV-Integrase Inhibition Activity (SPA strand transfer assay). The note with it: recombinant integrase, SPA beads, P33 labeled target DNA; read-out: Activity (IC50 class, HIV-integrase inhibition). The assay is classed as biochemical. As to the method: HIV-Integrase InhibitionActivity. To evaluate in-vitro activity against HIV-integrase, 5 pmole of biotin labeled substrate DNA was bound to 100 μg of Streptavidin coated PVT SPA beads (Amersham Pharmacia Biotech). Recombinant integrase (0.26 ng) was incubated with the beads for 90 min at 37° C. Unbound enzyme was removed by washing the complex followed by addition of inhibitors and 0.1 fmol of P33 labeled target DNA. The reaction was stopped by adding EDTA to a final concentration of 10 mM. Samples were counted in TopCountNXT (Packard) and the CPM was used as a measure of integration. The reaction condition was as described in A. Engelman and R. Craigie, J. Virol. 69, 5908-5911 (1995). The sequences of substrate and target DNA were described in Nucleic Acid Research 22, 1121-1122 (1994). Activity equal to A refers to a compound having IC50=0.002 to 0.10 μM while B and C denote compounds having IC50=0.1 to 1.0 μM and IC50≧1.0 μM respectively.
As to `CC1(C)OCCn2c1nc(C(=O)NCc1ccc(S(C)(=O)=O)o1)c(O)c2=O` [Example 88, 3-Hydroxy-9,9-dimethyl-N-((5-(methylsulfonyl)furan-2-yl)methyl)-4-oxo-4,6,7,9-tetrahydropyrimido[2,1-c][1,4]oxazine-2-carboxamide], the pIC50 – broadly, −log10 of the IC50, conventionally taken in molar units – is 6.00 to 7.00.
As for `CC1(C)OCCn2c1nc(C(=O)NCc1cccs1)c(O)c2=O` [Example 28, Pyrimido[2,1-c][1,4]oxazine-2-carboxamide, 4,6,7,9-tetrahydro-3-hydroxy-9,9-dimethyl-4-oxo-N-(2-thienylmethyl)-], the pIC50 is 7.00 to 8.70.
The figure for `CC1(C)OCCn2c1nc(C(=O)NCc1cc(C(=O)O)co1)c(O)c2=O` [Example 75, 3-Furancarboxylic acid, 5-[[[(4,6,7,9-tetrahydro-3-hydroxy-9,9-dimethyl-4-oxopyrimido[2,1-c][1,4]oxazin-2-yl)carbonyl]amino]methyl]] is no more than 6.00; for `Cc1cc(CNC(=O)c2nc3n(c(=O)c2O)CCOC3(C)C)nn1CCF` [Example 20, Pyrimido[2,1-c][1,4]oxazine-2-carboxamide, N-[[1-(2-fluoroethyl)-5-methyl-1H-pyrazol-3-yl]methyl]-4,6,7,9-tetrahydro-3-hydroxy-9,9-dimethyl-4-oxo-] it is 7.00 to 8.70.
For `CNC(=O)c1ccc(CNC(=O)c2nc3n(c(=O)c2O)CCOC3(C)C)o1` [Example 16, 3-Hydroxy-9,9-dimethyl-N-((5-(methylcarbamoyl)-2-furyl)methyl)-4-oxo-4,6,7,9-tetrahydropyrimido[2,1-c][1,4]oxazine-2-carboxamider] the value was 6.00 to 7.00; for `CC1(C)OCCn2c1nc(C(=O)NCc1nccs1)c(O)c2=O` [Example 5, Pyrimido[2,1-c][1,4]oxazine-2-carboxamide, 4,6,7,9-tetrahydro-3-hydroxy-9,9-dimethyl-4-oxo-N-(2-thiazolylmethyl)-], no more than 6.00.
For the molecule “Pyrimido[2,1-c][1,4]oxazine-2- carboxamide, N-[(1,3-dimethyl- 1H-pyrazol-4-yl)methyl]-4,6,7,9- tetrahydro-3-hydroxy-9,9- dimethyl-4-oxo- [Example 61]”, the pIC50 is 6.00 to 7.00.
As to “Pyrimido[2,1-c][1,4]oxazine-2- carboxamide, 4,6,7,9-tetrahydro-3- hydroxy-N-[2-(1H-indol-3- yl)ethyl]-9,9-dimethyl-4-oxo- [Example 57]”, the pIC50 is 6.00 to 7.00.
For `CC1(C)OCCn2c1nc(C(=O)NCc1nc3ccccc3[nH]1)c(O)c2=O` [Example 22, Pyrimido[2,1-c][1,4]oxazine-2-carboxamide, N-(1H-benzimidazol-2-ylmethyl)-4,6,7,9-tetrahydro-3-hydroxy-9,9-dimethyl-4-oxo-], the pIC50 was no more than 6.00.
For `CC1=CC=C(CNC(=O)c2nc3n(c(=O)c2O)CCOC3(C)C)S1(=O)=O` [Example 35, Pyrimido[2,1-c][1,4]oxazine-2-carboxamide, 4,6,7,9-tetrahydro-3-hydroxy-9,9-dimethyl-N-[(5-methyl-1,1-dioxido-2-thienyl)methyl]-4-oxo-] the value was no more than 6.00.
For `Cc1nnc(CNC(=O)c2nc3n(c(=O)c2O)CCOC3(C)C)o1` [Example 86, 3-Hydroxy-9,9-dimethyl-N-((5-methyl-1,3,4-oxadiazol-2-yl)methyl)-4-oxo-4,6,7,9-tetrahydropyrimido[2,1-c][1,4]oxazine-2-carboxamide] the value was no more than 6.00.
The figure for `Cn1cc(CNC(=O)c2nc3n(c(=O)c2O)CCOC3(C)C)nn1` [Example 25, Pyrimido[2,1-c][1,4]oxazine-2-carboxamide, 4,6,7,9-tetrahydro-3-hydroxy-9,9-dimethyl-N-[(1-methyl-1H-1,2,3-triazol-4-yl)methyl]-4-oxo-] is no more than 6.00; for “Pyrimido[2,1-c][1,4]oxazine-2- carboxamide, 4,6,7,9-tetrahydro-3- hydroxy-N-[2-(5-hydroxy-1H- indol-3-yl)ethyl]-9,9-dimethyl-4- oxo- [Example 51]” it is no more than 6.00; for `Cc1nc(CNC(=O)c2nc3n(c(=O)c2O)CCOC3(C)C)cs1` [Example 7, Pyrimido[2,1-c][1,4]oxazine-2-carboxamide, 4,6,7,9-tetrahydro-3-hydroxy-9,9-dimethyl-N-[(2-methyl-4-thiazolyl)methyl]-4-oxo-] it is 6.00 to 7.00.
Consider `CC1(C)OCCn2c1nc(C(=O)NCc1cc3ccccc3s1)c(O)c2=O` [Example 1, Pyrimido[2,1-c][1,4]oxazine-2-carboxamide, N-(benzo[b]thien-2-ylmethyl)-4,6,7,9-tetrahydro-3-hydroxy-9,9-dimethyl-4-oxo-], for which the pIC50 was 7.00 to 8.70.
The figure for `CCCn1ccc(CNC(=O)c2nc3n(c(=O)c2O)CCOC3(C)C)n1` [Example 93, 3-Hydroxy-9,9-dimethyl-4-oxo-N-((1-propyl-1H-pyrazol-3-yl)methyl)-4,6,7,9-tetrahydropyrimido[2,1-c][1,4]oxazine-2-carboxamide] is 6.00 to 7.00; for `Cc1csc(CNC(=O)c2nc3n(c(=O)c2O)CCCC32CCC2)c1` [Example 83, 3′-Hydroxy-N-((4-methyl-2-thienyl)methyl)-4′-oxo-7′,8′-dihydro-4′H,6′H-spiro[cyclobutane-1,9′-pyrido[1,2-a]pyrimidine]-2′-carboxamide] it is 7.00 to 8.70; for “Pyrimido[2,1-c][1,4]oxazine-2- carboxamide, 4,6,7,9-tetrahydro-3- hydroxy-9,9-dimethyl-4-oxo-N-[2- (2-thienyl)ethyl]- [Example 53]” it is 6.00 to 7.00.
For `CC1(C)OCCn2c1nc(C(=O)NCc1nc3c(s1)CCCCC3)c(O)c2=O` [Example 90, 3-Hydroxy-9,9-dimethyl-4-oxo-N-(5,6,7,8-tetrahydro-4H-cyclohepta[d][1,3]thiazol-2-ylmethyl)-4,6,7,9-tetrahydropyrimido[2,1-c][1,4]oxazine-2-carboxamide] the value was 7.00 to 8.70; for “Pyrimido[2,1-c][1,4]oxazine-2- carboxamide, 4,6,7,9-tetrahydro-3- hydroxy-9,9-dimethyl-N-[2-(5- methyl-1H-indol-3-yl)ethyl]-4-oxo- [Example 58]”, 6.00 to 7.00; for “Pyrimido[2,1-c][1,4]oxazine-2- carboxamide, 4,6,7,9-tetrahydro-3- hydroxy-9,9-dimethyl-N-[(5- methyl-2-phenyl-2H-1,2,3-triazol- 4-yl)methy]-4-oxo- [Example 49]”, no more than 6.00.
The figure for `CC1(C)OCCn2c1nc(C(=O)NCc1ccsc1)c(O)c2=O` [Example 36, Pyrimido[2,1-c][1,4]oxazine-2-carboxamide, 4,6,7,9-tetrahydro-3-hydroxy-9,9-dimethyl-4-oxo-N-(3-thienylmethyl)-] is 7.00 to 8.70; for `CC1(C)OCCn2c1nc(C(=O)NCCc1c[nH]c3ccc(F)cc13)c(O)c2=O` [Example 14, Pyrimido[2,1-c][1,4]oxazine-2-carboxamide, N-[2-(5-fluoro-1H-indol-3-yl)ethyl]-4,6,7,9-tetrahydro-3-hydroxy-9,9-dimethyl-4-oxo-] it is 7.00 to 8.70.
For `Cc1cc(CNC(=O)c2nc3n(c(=O)c2O)CCOC3(C)C)cs1` [Example 32, Pyrimido[2,1-c][1,4]oxazine-2-carboxamide, 4,6,7,9-tetrahydro-3-hydroxy-9,9-dimethyl-N-[(5-methyl-3-thienyl)methyl]-4-oxo-], the pIC50 is 7.00 to 8.70.
The figure for “Pyrimido[2,1-c][1,4]oxazine-2- carboxamide, N-[(1-ethyl-5- methyl-1H-pyrazol-4-yl)methyl]- 4,6,7,9-tetrahydro-3-hydroxy-9,9- dimethyl-4-oxo- [Example 64]” is 6.00 to 7.00; for `Cc1cc(CNC(=O)c2nc3n(c(=O)c2O)CCOC3(C)C)n(C)n1` [Example 8, Pyrimido[2,1-c][1,4]oxazine-2-carboxamide, N-[(1,3-dimethyl-1H-pyrazol-5-yl)methyl]-4,6,7,9-tetrahydro-3-hydroxy-9,9-dimethyl-4-oxo-] it is 6.00 to 7.00; for `Cc1ccc(CNC(=O)c2nc3n(c(=O)c2O)CCCC32CCC2)o1` [Example 82, 3′-Hydroxy-N-((5-methyl-2-furyl)methyl)-4′-oxo-7′,8′-dihydro-4′H,6′H-spiro[cyclobutane-1,9′-pyrido[1,2-a]pyrimidine]-2′-carboxamide] it is 7.00 to 8.70.
For `Cc1nc(C)c(CNC(=O)c2nc3n(c(=O)c2O)CCOC3(C)C)s1` [Example 24, Pyrimido[2,1-c][1,4]oxazine-2-carboxamide, N-[(2,4-dimethyl-5-thiazolyl)methyl]-4,6,7,9-tetrahydro-3-hydroxy-9,9-dimethyl-4-oxo-] the value was 7.00 to 8.70; for `Cc1ccc(CNC(=O)c2nc3n(c(=O)c2O)CCOC3(C)C)n1C` [Example 9, Pyrimido[2,1-c][1,4]oxazine-2-carboxamide, N-[(1,5-dimethyl-1H-pyrrol-2-yl)methyl]-4,6,7,9-tetrahydro-3-hydroxy-9,9-dimethyl-4-oxo-], 7.00 to 8.70; for “Pyrimido[2,1-c][1,4]oxazine-2- carboxamide, N-[[3-(4- chlorophenyl)-5- isoxazolyl]methyl]-4,6,7,9- tetrahydro-3-hydroxy-9,9- dimethyl-4-oxo- [Example 45]”, no more than 6.00.
The figure for `Cc1ccc(CNC(=O)c2nc3n(c(=O)c2O)CCN(C)C32CCC2)o1` [Example 77, 3′-Hydroxy-8′-methyl-N-((5-methyl-2-furyl)methyl)-4′-oxo-7′,8′-dihydro-4′H,6′H-spiro[cyclobutane-1,9′-pyrazino[1,2-a]pyrimidine]-2′-carboxamide] is 7.00 to 8.70.
